Experimental findings from patent publication US10383880B2 (Reset Therapeutics, Inc., priority 2012, dated 2019) are described below.

One may read the EC50 as the concentration at which the effect is half-maximal. Higher therefore signals weaker potency.

One experiment has as its system Per2-dLuc U2OS reporter cells. Kind of experiment: Per2 assay for evaluating the potency of test compounds (high-throughput circadian assay). The conditions noted are these: Homo sapiens, U2OS, stable U2OS reporter cells harboring Per2-dLuc; luminescence monitored over 4-5 days at 35° C. The class given is cell-based. The essentials:
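After 24 h culture, U2OS cells carrying Per2-dLuc were serum-shock synchronized into explant medium with 1.0 mM luciferin (10 mM HEPES pH 7.0) and compound in 0.5% DMSO. Luminescence was recorded over 4–5 days at 35 °C. Circadian period, amplitude and phase were derived, and EC50 calculated.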
`CS(=O)(=O)N(CC(O)Cn1c2ccccc2c2ccccc21)c1cccc2ccccc12` (stereo not drawn) [Compound 27, N-(3-(9H-Carbazol-9-yl)-2-hydroxypropyl)-N-(naphthalen-1-yl)methanesulfonamide] came in with a concentration for a half-maximal effect (EC50) of 250 nM.

In the case of `CS(=O)(=O)N(CC(O)Cn1c2ccccc2c2ccccc21)CC1CCCO1` (stereo not drawn) [Compound 51, N-(3-(9H-Carbazol-9-yl)-2-hydroxypropyl)-N-((tetrahydrofuran-2-yl)methyl)methanesulfonamide], a half-maximal response (EC50) required 371 nM.

The molecule `O=S1(=O)N(CC(O)Cn2c3ccccc3c3ccccc32)CCCC1(F)F` (stereo not drawn) [Compound 122, 2-(3-(9H-Carbazol-9-yl)-2-hydroxypropyl)-6,6-difluoro-1,2-thiazinane-1,1-dioxide] yielded an EC50 of 329 nM. This EC50 and that of the molecule before are within 1.5-fold of each other.

With `CS(=O)(=O)N(Cc1ccco1)CC(O)Cn1c2ccccc2c2cccc(F)c21` (stereo not drawn) [Compound 236, N-(3-(1-Fluoro-9H-carbazol-9-yl)-2-hydroxypropyl)-N-(furan-2-ylmethyl)methanesulfonamide], the EC50 is 620 nM.

`Cn1ccc2ccc(N(CC(O)Cn3c4ccccc4c4ccccc43)S(C)(=O)=O)cc21` (stereo not drawn) [Compound 66, N-(3-(9H-Carbazol-9-yl)-2-hydroxypropyl)-N-(1-methyl-1H-indol-6-yl)methanesulfonamide] registered an EC50 of 9900 nM. Against the preceding molecule, the EC50 is about 16-fold higher.

Take `CC(=O)Nc1ccc(N(CC(O)Cn2c3ccccc3c3ccccc32)S(C)(=O)=O)cc1` (stereo not drawn) [Compound 29, N-(4-(N-(3-(9H-Carbazol-9-yl)-2-hydroxypropyl)methylsulfonamido)phenyl)acetamide]: the EC50 was 710 nM.

Take `CCS(=O)(=O)N(Cc1ccco1)CC(O)Cn1c2ccccc2c2ccccc21` (stereo not drawn) [Compound 2, N-(3-(9H-Carbazol-9-yl)-2-hydroxypropyl)-N-(furan-2-ylmethyl)ethanesulfonamide]: the EC50 was 742 nM.

With `CCCOc1ccc(N(CC(O)Cn2c3ccc(F)cc3c3cc(F)ccc32)S(C)(=O)=O)cc1` (stereo not drawn) [Compound 203, N-(3-(3,6-Difluoro-9H-carbazol-9-yl)-2-hydroxypropyl)-N-(4-propoxyphenyl)methanesulfonamide], the response was half-maximal at 1770 nM (EC50).

The molecule `CS(=O)(=O)N(CC(O)Cn1c2ccccc2c2ccccc21)c1cccnn1` (stereo not drawn) [Compound 79, N-(3-(9H-Carbazol-9-yl)-2-hydroxypropyl)-N-(pyridazin-3-yl)methanesulfonamide] displayed an EC50 of 2800 nM.

Turning to `O=S1(=O)CCCCN1CC(O)Cn1c2cc(F)ccc2c2c(F)cccc21` (stereo not drawn) [Compound 96, N-(3-(2,5-Difluoro-9H-carbazol-9-yl)-2-hydroxypropyl)-1,2-thiazinane 1,1-dioxide], the EC50 came out at 456 nM. Compared with the last molecule, the EC50 is about 6.1-fold lower.

On to `CC(O)(CN1CCCCS1(=O)=O)Cn1c2ccc(F)cc2c2cc(F)ccc21` (stereo not drawn) [Compound 116, 2-(3-(3,6-Difluoro-9H-carbazol-9-yl)-2-hydroxy-2-methylpropyl)-1,2-thiazinane 1,1-dioxide], for which the response was half-maximal at 540 nM (EC50).

As to `CC(CN(CC(O)Cn1c2ccccc2c2ccccc21)S(C)(=O)=O)c1ccccc1` (stereo not drawn) [Compound 70, N-(3-(9H-Carbazol-9-yl)-2-hydroxypropyl)-N-(2-phenylpropyl)methanesulfonamide], it took 8970 nM to reach a half-maximal effect (EC50).

In the case of `COC(=O)N1CCCC(N(CC(O)Cn2c3ccccc3c3ccccc32)S(C)(=O)=O)C1` (stereo not drawn) [Compound 130, Methyl 3-(N-(3-(9H-carbazol-9-yl)-2-hydroxypropyl)methylsulfonamido)piperidine-1-carboxylate], the EC50 was determined as 636 nM.

As for `CS(=O)(=O)N(CC(O)Cn1c2ccccc2c2ccccc21)C1CC(F)(F)C1` (stereo not drawn) [Compound 133, N-(3-(9H-Carbazol-9-yl)-2-hydroxypropyl)-N-(3,3-difluorocyclobutyl)methanesulfonamide], a half-maximal effect (EC50) was put at 1530 nM.

In the case of `CS(=O)(=O)N(CC(O)Cn1c2ccccc2c2ccccc21)c1ccc2[nH]ccc2c1` (stereo not drawn) [Compound 76, N-(3-(9H-Carbazol-9-yl)-2-hydroxypropyl)-N-(1H-indol-5-yl)methanesulfonamide], a half-maximal response (EC50) required 2180 nM.

`CS(=O)(=O)N(CC(O)Cn1c2ccccc2c2ccccc21)c1ccc(Cl)cc1` (stereo not drawn) [Compound 22, N-(3-(9H-Carbazol-9-yl)-2-hydroxypropyl)-N-(4-chlorophenyl)methanesulfonamide] gave an EC50 of 510 nM.

As for `CS(=O)(=O)N(CC(O)Cn1c2ccccc2c2ccccc21)c1ccc2sccc2c1` (stereo not drawn) [Compound 65, N-(3-(9H-Carbazol-9-yl)-2-hydroxypropyl)-N-(benzo[b]thiophen-5-yl)methanesulfonamide], the concentration for a half-maximal effect (EC50) worked out at 9500 nM. Against the preceding molecule, the EC50 is about 19-fold higher.

Take `CC1CCCC1N(CC(O)Cn1c2ccc(F)cc2c2cc(F)ccc21)S(C)(=O)=O` (stereo not drawn) [Compound 193A, N-(3-(3,6-Difluoro-9H-carbazol-9-yl)-2-hydroxypropyl)-N-(2-methylcyclopentyl)methanesulfonamide]: the EC50 came out at 427 nM.

Consider `CC(C)Oc1ccc(N(CC(O)Cn2c3ccc(F)cc3c3cc(F)ccc32)S(C)(=O)=O)cc1` (stereo not drawn) [Compound 210, N-(3-(3,6-Difluoro-9H-carbazol-9-yl)-2-hydroxypropyl)-N-(4-isopropoxyphenyl)methanesulfonamide], for which a half-maximal response (EC50) required 7210 nM.

`CN(CC(O)Cn1c2cc(F)ccc2c2ccc(F)cc21)S(C)(=O)=O` (stereo not drawn) [Compound 94, N-(3-(2,7-Difluoro-9H-carbazol-9-yl)-2-hydroxypropyl)-N-methylmethanesulfonamide] gave an EC50 of 3450 nM.

Molecule `CS(=O)(=O)N(CC(O)Cn1c2ccccc2c2ccccc21)CC1CC2CCC1O2` (single isomer, unassigned) [Compound 69, N-(7-Oxabicyclo[2.2.1]heptan-2-ylmethyl)-N-(3-(9H-carbazol-9-yl)-2-hydroxypropyl)methanesulfonamide] displayed an EC50 of 759 nM.

On to `CC1CN(CC(C)(O)Cn2c3ccc(F)cc3c3cc(F)ccc32)S(=O)(=O)C1` (stereo not drawn) [Compound 195, 2-(3-(3,6-Difluoro-9H-carbazol-9-yl)-2-hydroxy-2-methylpropyl)-4-methylisothiazolidine-1,1-dioxide], for which the response was half-maximal at 254 nM (EC50).

Molecule `COCCN(CC(O)Cn1c2cc(F)ccc2c2ccc(F)cc21)S(C)(=O)=O` (stereo not drawn) [Compound 95, N-(3-(2,7-Difluoro-9H-carbazol-9-yl)-2-hydroxypropyl)-N-(2-methoxyethyl)methanesulfonamide] returned an EC50 of 2740 nM. This EC50 lies about 11-fold higher than the previous one.

In the case of `COCCS(=O)(=O)N(Cc1ccco1)CC(O)Cn1c2ccccc2c2ccccc21` (stereo not drawn) [Compound 11, N-(3-(9H-Carbazol-9-yl)-2-hydroxypropyl)-N-(furan-2-ylmethyl)-2-methoxyethanesulfonamide], the concentration giving a half-maximal response (EC50) is 1790 nM.

In turn, `CCN(CC(O)Cn1c2ccc(F)cc2c2ccc(F)cc21)S(C)(=O)=O` (stereo not drawn) [Compound 164, N-(3-(2,6-Difluoro-9H-carbazol-9-yl)-2-hydroxypropyl)-N-ethylmethanesulfonamide] returned an EC50 of 200 nM.

The molecule `CC1(N(CC(O)Cn2c3ccccc3c3ccccc32)S(C)(=O)=O)CC1` (stereo not drawn) [Compound 137, N-(3-(9H-Carbazol-9-yl)-2-hydroxypropyl)-N-(1-methylcyclopropyl)methanesulfonamide] gave an EC50 of 76 nM.

Still in this experiment, the particulars now being: stable U2OS reporter cells harboring Per2-dLuc; luminescence monitored over 4-5 days at 35° C.
Turning to `CS(=O)(=O)N(CC(O)Cn1c2ccccc2c2ccccc21)C1CC2CCC1O2` (single isomer, unassigned) [Compound 140B, N-(3-(9H-Carbazol-9-yl)-2-hydroxypropyl)-N-(7-oxabicyclo[2.2.1]heptan-2-yl)methanesulfonamide], a half-maximal response (EC50) required 823 nM. In other words, the sub-micromolar range.
